Measurements published in ChEMBL document CHEMBL1124460, “Synthesis and biological evaluation of [125I]- and [123I]-4-iododexetimide, a potent muscarinic cholinergic receptor antagonist” (J Med Chem, 1989).

Assays:
[1] = biological target: Muscarinic acetylcholine receptor; test: Displacement of [3H]N-methylscopolamine from rat brain homogenate; type: tissue-based
[2] = biological target: Muscarinic acetylcholine receptor; test: Ability (10 ug/kg) to inhibit binding of [125I]iododexetimide to muscarinic receptor in mice
[3] = Ability (10 ug/kg) to inhibit binding of [125I]iododexetimide to adrenergic receptor in mice
[4] = Ability (10 ug/kg) to inhibit binding of [125I]iododexetimide to 5-hydroxytryptamine receptor in mice; settings: Mus musculus

Row | IC50 [1] [µM] | Structure (SMILES) | also measured
1 | 0.5 | O=C1CCC(c2ccccc2)(C2CCN(Cc3ccccc3Br)CC2)C(=O)N1 (configuration not stated) | 
2 | 0.032 | O=C1CCC(c2ccccc2)(C2CCN(Cc3ccccc3F)CC2)C(=O)N1 (configuration not stated) | 
3 | 0.098 | O=C1CCC(c2ccccc2)(C2CCN(Cc3ccc(F)cc3)CC2)C(=O)N1 (configuration not stated) | 
4 | 0.021 | O=C1CCC(c2ccccc2)(C2CCN(Cc3cccc(F)c3)CC2)C(=O)N1 (configuration not stated) | 
5 | 0.027 | O=C1CCC(c2ccccc2)(C2CCN(Cc3ccc(Cl)cc3)CC2)C(=O)N1 (configuration not stated) | 
6 |  | O=C1CC[C@@](c2ccccc2)(C2CCN(Cc3ccccc3)CC2)C(=O)N1 [DEXETIMIDE] | IC50 [2]: 0.0033 µM
7 |  | COc1cc2nc(N3CCN(C(=O)c4ccco4)CC3)nc(N)c2cc1OC [PRAZOSIN] | IC50 [3]: 13 µM
8 | 0.022 | O=C1CCC(c2ccccc2)(C2CCN(Cc3cccc(I)c3)CC2)C(=O)N1 (configuration not stated) | 
9 | 0.5 | O=C1CCC(c2ccccc2)(C2CCN(Cc3ccccc3I)CC2)C(=O)N1 (configuration not stated) | 
10 |  | O=C(c1ccc(F)cc1)C1CCN(CCn2c(=O)[nH]c3ccccc3c2=O)CC1 [KETANSERIN] | IC50 [4]: 130 µM
11 |  | Cl.O=C1CCC(c2ccccc2)(C2CCN(Cc3ccccc3)CC2)C(=O)N1 (configuration not stated) [BENZETIMIDE HYDROCHLORIDE] | IC50 [2]: 8.9 µM
12 | 0.024 | O=C1CCC(c2ccccc2)(C2CCN(Cc3cccc(Br)c3)CC2)C(=O)N1 (configuration not stated) | 
13 | 0.017 | O=C1CCC(c2ccccc2)(C2CCN(Cc3ccc(I)cc3)CC2)C(=O)N1 (configuration not stated) | 
14 | 0.46 | O=C1CCC(c2ccccc2)(C2CCN(Cc3ccccc3Cl)CC2)C(=O)N1 (configuration not stated) | 
15 | 0.038 | O=C1CCC(c2ccccc2)(C2CCN(Cc3ccc(Br)cc3)CC2)C(=O)N1 (configuration not stated) | 
16 | 0.026 | O=C1CCC(c2ccccc2)(C2CCN(Cc3cccc(Cl)c3)CC2)C(=O)N1 (configuration not stated) | 

Row | Structure (SMILES) | IC50 [1] [µM] | also measured
17 | O=C1CCC(c2ccccc2)(C2CCN(Cc3ccccc3)CC2)C(=O)N1 (configuration not stated) [BENZETIMIDE] | 0.015 | 
